Laboratory results as given in PubChem BioAssay AID328 (DTP/NCI, 2004).
Several values for one entry are separate records, joined by “and”; a condition that tells them apart may be missing. Equal values may be shown once. Toxic doses and inconclusive results are not listed. The calls were made as follows: active = survival T/C of 150% or more; inactive = T/C below 125% in these data.

Tested on: BDF1 mice, P388 leukemia ip, median survival T/C
Experiment: NCI In Vivo Anticancer Drug Screen. Data for tumor model P388 Leukemia (intraperitoneal) in B6D2F1 (BDF1) mice
Conditions: endpoint: median survival time, higher = longer survival
How it was run: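 In tumour-bearing mice, survival after compound treatment is set against the vehicle group and given as a quotient.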

[1] = dose: 100.0 mg/kg/injection, schedule: Q04DX003 (ip), vehicle: Klucel (hydroxypropylcellulose) (HPC)
[2] = dose: 200.0 mg/kg/injection, schedule: Q04DX003 (ip), vehicle: Klucel (hydroxypropylcellulose) (HPC)
[3] = dose: 400.0 mg/kg/injection, schedule: Q04DX003 (ip), vehicle: Klucel (hydroxypropylcellulose) (HPC)
[4] = dose: 100.0 mg/kg/injection, schedule: Q01DX009 (ip), vehicle: saline with Tween-80
[5] = dose: 200.0 mg/kg/injection, schedule: Q01DX009 (ip), vehicle: saline with Tween-80
[6] = dose: 400.0 mg/kg/injection, schedule: Q01DX009 (ip), vehicle: saline with Tween-80
[7] = dose: 100.0 mg/kg/injection, schedule: Q04DX003 (ip), vehicle: saline with Tween-80
[8] = dose: 200.0 mg/kg/injection, schedule: Q04DX003 (ip), vehicle: saline with Tween-80
[9] = dose: 400.0 mg/kg/injection, schedule: Q04DX003 (ip), vehicle: saline with Tween-80
[10] = dose: 100.0 mg/kg/injection, schedule: Q01DX009 (ip), vehicle: Klucel (hydroxypropylcellulose) (HPC)
[11] = dose: 200.0 mg/kg/injection, schedule: Q01DX009 (ip), vehicle: Klucel (hydroxypropylcellulose) (HPC)
[12] = dose: 100.0 mg/kg/injection, schedule: Q04DX003 (ip), vehicle: saline
[13] = dose: 200.0 mg/kg/injection, schedule: Q04DX003 (ip), vehicle: saline
[14] = dose: 400.0 mg/kg/injection, schedule: Q04DX003 (ip), vehicle: saline
[15] = dose: 50.0 mg/kg/injection, schedule: Q01DX009 (ip), vehicle: saline with Tween-80

Measured: T/C

C/C=C(/C)N(C(C)=O)N(C(C)=O)c1ccc([N+](=O)[O-])cc1[N+](=O)[O-]
inactive: dose: 100.0 mg/kg/injection, schedule: Q01DX001 (ip), vehicle: Klucel (hydroxypropylcellulose) (HPC) 109 % of control | [1] 90 % of control | dose: 200.0 mg/kg/injection, schedule: Q01DX001 (ip), vehicle: Klucel (hydroxypropylcellulose) (HPC) 100 % of control | [2] 104 % of control | dose: 400.0 mg/kg/injection, schedule: Q01DX001 (ip), vehicle: Klucel (hydroxypropylcellulose) (HPC) 109 % of control | [3] 95 % of control

NC(Cc1cccs1)C(=O)O (stereo not drawn)
inactive: [4] 100 % of control | [5] 110 % of control | [6] 110 % of control

O=S(=O)(Nc1ccccc1)c1ccc(C2CC3(Cl)C(Cl)=C(Cl)C2(Cl)C3(Cl)Cl)cc1 (stereo not drawn)
inactive: [7] 91 % of control | [8] 91 % of control | [9] 91 % of control

COc1ccc(/C=C/c2ccc3ccccc3n2)c(OC)c1
inactive: [7] 88 % of control | [8] 100 % of control

O=[N+]([O-])c1ccc(Cl)c(S(=O)O)c1
inactive: dose: 75.0 mg/kg/injection, schedule: Q04DX003 (ip), vehicle: saline 95 % of control | dose: 150.0 mg/kg/injection, schedule: Q04DX003 (ip), vehicle: saline 100 % of control | dose: 300.0 mg/kg/injection, schedule: Q04DX003 (ip), vehicle: saline 95 % of control

CO[C@H]1CC[C@@]2(C)C(=CC[C@H]3[C@@H]4C[C@H](O)C[C@@]4(C)CC[C@@H]32)C1
inactive: dose: 12.5 mg/kg/injection, schedule: Q01DX010 (ip), vehicle: other 105 % of control | dose: 25.0 mg/kg/injection, schedule: Q01DX010 (ip), vehicle: other 90 % of control and 120 % of control

c1ccc(OCC2c3ccccc3Nc3ccccc32)cc1
inactive: dose: 100.0 mg/kg/injection, schedule: Q01DX001 (ip), vehicle: saline with Tween-80 91 % of control | dose: 200.0 mg/kg/injection, schedule: Q01DX001 (ip), vehicle: saline with Tween-80 94 % of control | dose: 400.0 mg/kg/injection, schedule: Q01DX001 (ip), vehicle: saline with Tween-80 100 % of control

Nc1nc(N)c2nc(CNc3ccc(C(=O)NC(CC(=O)O)C(=O)O)cc3)cnc2n1 (stereo not drawn)
inactive: dose: 66.0 mg/kg/injection, schedule: Q04DX003 (ip), vehicle: saline with Tween-80 104 % of control | [7] 100 % of control

CNC(=S)NNc1ccccc1
inactive: dose: 50.0 mg/kg/injection, schedule: Q01DX009 (ip), vehicle: Klucel (hydroxypropylcellulose) (HPC) 96 % of control | [10] 91 % of control | [1] 90 % of control | [11] 95 % of control | [2] 95 % of control | dose: 400.0 mg/kg/injection, schedule: Q01DX009 (ip), vehicle: Klucel (hydroxypropylcellulose) (HPC) 95 % of control | [3] 100 % of control

C[n+]1cccc2c3ccccc3c(-c3ccccc3)cc21
inactive: dose: 0.39 mg/kg/injection, schedule: Q01DX009 (ip), vehicle: water 101 % of control | dose: 0.78 mg/kg/injection, schedule: Q01DX009 (ip), vehicle: water 90 % of control and 106 % of control | dose: 1.56 mg/kg/injection, schedule: Q01DX009 (ip), vehicle: water 89 % of control and 94 % of control and 103 % of control | dose: 3.12 mg/kg/injection, schedule: Q01DX009 (ip), vehicle: water 87 % of control and 93 % of control and 116 % of control | dose: 6.25 mg/kg/injection, schedule: Q01DX009 (ip), vehicle: water 98 % of control and 104 % of control and 122 % of control | dose: 6.25 mg/kg/injection, schedule: Q04DX003 (ip), vehicle: water 90 % of control | dose: 12.5 mg/kg/injection, schedule: Q01DX009 (ip), vehicle: water 100 % of control and 111 % of control | dose: 12.5 mg/kg/injection, schedule: Q04DX003 (ip), vehicle: water 103 % of control | dose: 25.0 mg/kg/injection, schedule: Q04DX003 (ip), vehicle: water 112 % of control | dose: 50.0 mg/kg/injection, schedule: Q01DX009 (ip), vehicle: water 113 % of control

Cc1cc(C)c([I+]c2c(C)cc(C)cc2C)c(C)c1
inactive: dose: 0.28 mg/kg/injection, schedule: Q01DX009 (ip), vehicle: saline 118 % of control | dose: 0.45 mg/kg/injection, schedule: Q04DX003 (ip), vehicle: saline 109 % of control | dose: 0.56 mg/kg/injection, schedule: Q01DX009 (ip), vehicle: saline 118 % of control | dose: 0.65 mg/kg/injection, schedule: Q04DX003 (ip), vehicle: saline 109 % of control | dose: 1.1 mg/kg/injection, schedule: Q04DX003 (ip), vehicle: saline 120 % of control | dose: 1.13 mg/kg/injection, schedule: Q01DX009 (ip), vehicle: saline 109 % of control | dose: 1.65 mg/kg/injection, schedule: Q04DX003 (ip), vehicle: saline 120 % of control | dose: 3.0 mg/kg/injection, schedule: Q01DX009 (ip), vehicle: Klucel (hydroxypropylcellulose) (HPC) 103 % of control | dose: 3.0 mg/kg/injection, schedule: Q04DX003 (ip), vehicle: Klucel (hydroxypropylcellulose) (HPC) 112 % of control | dose: 6.0 mg/kg/injection, schedule: Q01DX009 (ip), vehicle: Klucel (hydroxypropylcellulose) (HPC) 111 % of control | dose: 6.0 mg/kg/injection, schedule: Q04DX003 (ip), vehicle: Klucel (hydroxypropylcellulose) (HPC) 100 % of control | dose: 8.0 mg/kg/injection, schedule: Q04DX003 (ip), vehicle: Klucel (hydroxypropylcellulose) (HPC) 95 % of control | dose: 8.0 mg/kg/injection, schedule: Q04DX003 (ip), vehicle: saline with Tween-80 120 % of control | dose: 12.5 mg/kg/injection, schedule: Q04DX003 (ip), vehicle: Klucel (hydroxypropylcellulose) (HPC) 115 % of control

Cc1cc2c3ccccc3ncn2n1
inactive: dose: 100.0 mg/kg/injection, schedule: Q01DX001 (ip), vehicle: saline 100 % of control | [10] 100 % of control | [12] 100 % of control | dose: 200.0 mg/kg/injection, schedule: Q01DX001 (ip), vehicle: saline 108 % of control | [11] 108 % of control | [13] 100 % of control | [14] 100 % of control

CC(=O)c1cc(C)[nH]c1C
inactive: dose: 200.0 mg/kg/injection, schedule: Q04DX003 (ip), vehicle: saline sonified 115 % of control | dose: 400.0 mg/kg/injection, schedule: Q04DX003 (ip), vehicle: saline sonified 100 % of control

CCSC(=O)CC
inactive: [15] 95 % of control | [4] 105 % of control | [7] 104 % of control | [5] 100 % of control | [8] 104 % of control | [9] 100 % of control

COc1ccc(C=NCCN=Cc2ccc(OC)c(OC)c2)cc1OC
inactive: [4] 105 % of control | [7] 95 % of control | [5] 100 % of control | [8] 91 % of control | [6] 100 % of control | [9] 91 % of control

COc1c(C)c2c3c4c1C(=O)C(=CC4=O)NC(=O)/C(C)=C\C=C\C(C)C1OC(C)(C)OC(C1C)C(C)C(OC(C)=O)C(C)C(OC)/C=C/OC(C)(O2)C3=O (stereo not drawn)
inactive: dose: 12.5 mg/kg/injection, schedule: Q01DX009 (ip), vehicle: saline with Tween-80 109 % of control | dose: 25.0 mg/kg/injection, schedule: Q01DX009 (ip), vehicle: saline with Tween-80 113 % of control | [15] 105 % of control and 117 % of control

Cc1cc(C=O)c(O)c(C=O)c1
inactive: dose: 100.0 mg/kg/injection, schedule: Q04DX002 (ip), vehicle: saline with Tween-80 112 % of control | dose: 200.0 mg/kg/injection, schedule: Q04DX002 (ip), vehicle: saline with Tween-80 110 % of control | dose: 400.0 mg/kg/injection, schedule: Q04DX002 (ip), vehicle: saline with Tween-80 109 % of control

Cc1nc2ccc(O)cc2cc1CO
inactive: dose: 25.0 mg/kg/injection, schedule: Q01DX009 (ip), vehicle: saline 95 % of control | dose: 50.0 mg/kg/injection, schedule: Q01DX009 (ip), vehicle: saline 100 % of control | dose: 100.0 mg/kg/injection, schedule: Q01DX009 (ip), vehicle: saline 99 % of control | dose: 200.0 mg/kg/injection, schedule: Q01DX009 (ip), vehicle: saline 109 % of control | dose: 400.0 mg/kg/injection, schedule: Q01DX009 (ip), vehicle: saline 111 % of control

N#C/C(=C\C=C\c1ccccc1)C(N)=O
inactive: [15] 110 % of control | [4] 120 % of control | [5] 120 % of control

CNCc1cccs1
inactive: [12] 106 % of control | [13] 117 % of control | [14] 100 % of control
